# Measurements published in article PMC3770646, “Isolation of an Orally Active Insecticidal Toxin from the Venom of an Australian Tarantula” (PLoS ONE, 2013).
# Read-outs that look alike come from different tables or passages of the source. Where a SMILES comes first, the peptide text is derived from it. Bridges are numbered along the chain shown (N, C = ends).
# Key:
# H. armigera = details: ref [61], cited from earlier work
# Text: Table 2 Comparison of OAIP-1 with pyrethroid insecticides. | column: Oral LD50 (nmol/g)
# Helicoverpa armigera = assay: Assay of synergism of imidacloprid and sOAIP-1 in agar diet; format: in vivo; details: H. armigera fed 100 pmol of the single insecticide in agar diet, mean ±SEM of three replicates of 10
# Experimental: (§1) For feeding assays, an agar-based insect diet was created based on literature information (Table S1). Instead of using a separate preparation as a vitamin supplement, the commercially available children's vitamin Pentavite (Bayer, Leverkusen, Germany) was added after the agar had cooled below 65°C. Mealworms were fed 100 µL of the agar diet, with or without 20 µL toxin (or water for untreated controls). For the choice test, the same size Petri dish was divided in half and 50 µL of either toxin-treated or untreated agar was pipetted onto each half and mortality was recorded after 48 h. Cotton bollworms (Helicoverpa armigera, Lepidoptera: Noctuidae) were fed 5 µL toxin (or water for untreated controls) in 20 µL of agar diet, and maintained in 12-well tissue culture dishes. For assays of synergism using 100 pmol imidacloprid (Sigma-Aldrich) and 100 pmol sOAIP-1, 20 µL of one toxin or 10 µL of each toxin was incorporated into the agar diet for H. armigera. After all the treated diet was consumed, untreated diet was supplied ad libitum.
# In all experiments, the mortality of untreated insects was used to correct the data for mortality due to injection of toxin or incorporation in the diet. […]
# [1] = system: mealworms (larval Tenebrio molitor); assay: Injection of toxin into mealworms; format: in vivo; details: injection into metathoracic pleurite, corrected for control mortality, three replicates of 10
# Experimental: Termites were fed a 20% α-cellulose matrix (Sigma-Aldrich, St. Louis, MO) mixed with water; the toxin was dissolved in water, and 20 µL was added to the cellulose matrix to a final concentration of 350 nmol/g, and then pipetted into Petri dishes. After the cellulose matrix had dried (to prevent termites from drowning in wet bait), nine worker termites and one soldier termite were added to each dish; each toxin dose was replicated three times. As a comparison, toxins were also injected into mealworms at a concentration of 350 nmol/g in three replicates of 10 insects.
# Mealworms were purchased from Pisces Enterprises (Kenmore, QLD, Australia). Insects between 3rd and 4th instar (∼180 mg/individual) were used. For each mealworm, 2.6 µL of toxin diluted in ultrapure water was injected into the metathoracic pleurite. Injections were performed using a 29.5 gauge insulin syringe (B–D Ultra-Fine, Terumo Medical Corporation, Elkton, MD). Three replicates of 10 insects were used for each toxin concentration, and the same number of control insects were injected with ultrapure water and maintained under the same conditions.
# Chicken feed was provided ad libitum for mealworm food. […] All insects were maintained at 24.5°C in the dark at ambient humidity in sterile Petri dishes. […]
# [2] = system: mealworms (larval Tenebrio molitor); assay: Feeding assay, toxin in agar diet fed to mealworms; format: in vivo; details: corrected for control mortality, three replicates of 10
# Experimental: Chicken feed was provided ad libitum for mealworm food. A Whatman filter paper saturated with distilled water was used to maintain humidity in all mealworm experiments except feeding assays, which used the synthetic orally active insecticidal peptide 1 (sOAIP-1) in the agar diet described below. The agar diet allowed a homogenous mixture of toxin and diet to be prepared so preferential feeding on untreated diet would not be possible. All insects were maintained at 24.5°C in the dark at ambient humidity in sterile Petri dishes.
# as §1, with “For assays of synergism using 100 pmol imidacloprid (Sigma-Aldrich) and 100 pmol sOAIP-1, 20 µL of one toxin or 10 µL of each toxin was incorporated into the agar diet for H. armigera. After all the treated diet was consumed, untreated diet was supplied ad libitum.” left out
# [3] = system: mealworms (larval Tenebrio molitor); assay: Feeding choice test, toxin-treated and untreated agar; format: in vivo
# Experimental: as §1
# In addition to toxicity assays, a choice test was conducted to determine whether sOAIP-1 is repellent. […] Conversely, if the toxin-treated agar was preferentially consumed, it might indicate that sOAIP-1 acts as an attractant.
# [4] = In vitro stability in undiluted insect hemolymph; format: in vitro ADME, Helicoverpa armigera; details: undiluted H. armigera hemolymph, 30 µg peptide in 200 µL, ambient temperature (23°C), dark
# Experimental: Fourth-instar H. armigera larvae were decapitated and the gut was removed using forceps. The carcasses were spun in a benchtop centrifuge (14,000 g for 10 min) to separate the hemolymph from exoskeleton. For each time point, 200 µL of undiluted hemolymph was mixed with 30 µg of sOAIP-1. The hemolymph/sOAIP-1 solution was maintained in the dark at room temperature, and immediately before RP-HPLC analysis the hemolymph/sOAIP-1 solution was again spun in a benchtop centrifuge (14,000 g for 10 min). After centrifugation, 30 µg of a control peptide, ω-HXTX-Hv1a, was added to aid quantification and the sample was filtered using a […] filter. The toxins were separated by RP-HPLC using a linear acetonitrile gradient (5–40% over 40 min), and the identity of each toxin was confirmed using mass spectrometry. The percentage of intact sOAIP-1 present at each time point was determined by comparing the area of the sOAIP-1 peak to that at zero time, both measured relative to the area of the ω-HXTX-Hv1a peak.
# [5] = pyrethroid-resistant strain BK99R9 (R)
SMILES,Oral LD50 (H. armigera; [5]) [nmol/g],Oral LD50 (H. armigera; susceptible strain BK77 (S)) [nmol/g],mortality at 48 h (Helicoverpa armigera) [%],further results
Cc1c(COC(=O)[C@@H]2[C@H](/C=C(\Cl)C(F)(F)F)C2(C)C)cccc1-c1ccccc1 (racemic) [Bifenthrin],20.6,1.1,–,–
CC1(C)[C@H](C(=O)O[C@H](C#N)c2cccc(Oc3ccccc3)c2)[C@@H]1C=C(Br)Br [Deltamethrin],0.46,0.35,–,–
CCOc1ccc(C(C)(C)COCc2cccc(Oc3ccccc3)c2)cc1 [Etofenprox],55.9,0.31,–,–
CC(C)C(C(=O)OC(C#N)c1cccc(Oc2ccccc2)c1)c1ccc(Cl)cc1 (centres unmarked) [Fenvalerate],41.9,7.8,–,–
O=[N+]([O-])NC1=NCCN1Cc1ccc(Cl)nc1 [imidacloprid],–,–,31±3,–
"CC[C@H](C)[C@@H]1NC(=O)[C@@H]2CSSC[C@H](NC(=O)[C@@H](N)CC(=O)O)C(=O)NCC(=O)N[C@@H](Cc3c[nH]cn3)C(=O)N[C@@H](CC(C)C)C(=O)N[C@@H](Cc3c[nH]cn3)C(=O)N[C@@H](CC(=O)O)C(=O)N3CCC[C@H]3C(=O)N[C@H]3CSSC[C@H](NC(=O)[C@H](CCC(N)=O)NC(=O)[C@H](CC(C)C)NC(=O)CNC1=O)C(=O)N[C@@H](CCCNC(=N)N)C(=O)N[C@@H](Cc1ccc(O)cc1)C(=O)NCC(=O)N[C@@H](CCCCN)C(=O)N[C@H](C(=O)N[C@@H](CC(C)C)C(=O)N[C@H](C(=O)N[C@@H](CCCNC(=N)N)C(=O)O)C(C)C)CSSC[C@H](NC(=O)[C@H]([C@@H](C)O)NC(=O)[C@H](CCCNC(=N)N)NC(=O)[C@H](Cc1c[nH]cn1)NC(=O)CNC(=O)[C@@H]1CCCN1C(=O)[C@H](CCCNC(=N)N)NC(=O)[C@H](CC(=O)O)NC(=O)[C@H](CC(N)=O)NC(=O)[C@@H]1CCCN1C3=O)C(=O)N2 [sOAIP-1] (H-DCGHLHDPCPNDRPGHRTCCIGLQCRYGKCLVR-OH; disulfide 2-20, 9-25, 19-30; N-terminus and C-terminus assumed)",–,–,4±3,"LD50, injected toxin [1]: 1.84 ± 0.8 nmol/g; LD50, oral administration [2]: 170.5 ± 0.2 nmol/g; mortality at 48 h in choice test ([3]; mealworms offered toxin-treated and untreated agar, 1 pmol toxin, three replicates of 10): no mortality; repellent or attractant effect ([3]; mealworms, choice test compared with non-choice test): neither a repellent that repels insects nor an attractant; remaining at 24 h ([4]; cerebrospinal or other body fluid, 24 h, RP-HPLC peak area relative to ω-HXTX-Hv1a, read-out: remained intact): ~40%; metabolised at 72 h ([4]; cerebrospinal or other body fluid, 72 h, RP-HPLC peak area relative to ω-HXTX-Hv1a, read-out: peptide degraded): 90%; remained intact ([4]; one-week incubation, RP-HPLC): none remained intact"
